# Patent US8545876B1, “Modified drugs for use in liposomal nanoparticles” (The University of British Columbia, priority 2008, dated 2013)
# Like-named read-outs stand apart in the source and are kept apart here.
# Legend:
# [1] = test system: breast cancer cell line MDA435/LCC6; assay: In vitro cytotoxicity, Alamar Blue assay; type: cell-based; conditions: Homo sapiens; MDA-MB-435/LCC6, 72-h drug exposure
# Method: (§1) Anticancer activity was evaluated against a panel of 3 human cancer cell lines, including the ovarian cancer cell line ES-2, the prostate cancer cell line PC3 and the breast cancer cell line MDA435/LCC6 (BC Cancer Research Centre, Vancouver, BC) (Fields and Lancaster, Am. Biotechnol. Lab., 11:48-50 (1993); Nakayama et al., J. Immunol. Methods, 204:205-208 (1997)). Cytotoxicity was determined using the Alamar Blue assay after a 72-h drug exposure period. […] The plates were returned to the incubator for 4 h; sample fluorescence was determined at λex=530 nm and λem=590 nm. Viability was calculated according to: Cell viability (%)=(Fplus drug−Fbackground)/(Fminus drug−Fbackground)*100, where Fplus drug is the fluorescence reading in the presence of drug, Fminus drug the cell control in the absence of drug and Fbackground the background fluorescence (media alone).
# [2] = test system: ovarian cancer cell line ES-2; assay: In vitro cytotoxicity, Alamar Blue assay; type: cell-based; conditions: Homo sapiens; ES-2, 72-h drug exposure
# Method: as §1
# [3] = test system: prostate cancer cell line PC3; assay: In vitro cytotoxicity, Alamar Blue assay; type: cell-based; conditions: Homo sapiens; PC-3, 72-h drug exposure
# Method: as §1
# [4] = Chemical (hydrolytic) stability in buffered aqueous solutions; type: physicochemical
# Method: (§2) The chemical stability of the docetaxel derivatives was determined in aqueous solutions at different pH values and temperatures, and in biological media (mouse plasma). Aliquots of the docetaxel derivatives in acetonitrile were mixed with buffered citrate/HEPES (10 mM/10 mM) solutions at pH 4.0 and 7.5, or in mouse plasma in 1 mL glass HPLC sample vials sealed with Teflon-lined caps (final volume 0.25 ml, final docetaxel derivative concentration 50 µg/ml). Drug stability was determined 1, 4 and 24 hrs after incubation at 37° C. by UPLC-UV. At the indicated time points, a 3-fold excess of methanol/0.1% TFA was added to the sample. Citrate/HEPES buffered samples were analyzed by UHPLC as described above. For plasma samples, proteins precipitated by the addition of methanol/0.1% TFA pelleted by centrifugation at 14,000×g and supernatants were analyzed for the drug derivatives. Heparanized mouse plasma was diluted to 50% with 100 mM sodium-phosphate buffer to keep the pH constant throughout the experiment.
# (§3) To be suitable for formulation in LN, derivatives must be stable at pH 4 (the pH present inside the LN carrier). In addition, prodrug derivatives should readily form the active drug under physiological conditions (e.g., at pH 7.4 and/or in the presence of endogenous enzymes) once released from the LN. […] TD1-3 and TD7 were selected for loading into LN and testing of such LN for drug release in vitro.
# [5] = Stability in mouse plasma; type: in vitro ADME; conditions: 24 hour incubation in mouse plasma, 37° C.
# Method: as §2, §3
# [6] = Single dose tolerability (MTD) study; type: in vivo, SCID/Rag2-M mice; conditions: for MTD at 14 days: SCID/Rag2-M, mouse, in vivo, iv, single dose i.v.
# Method: Tolerability studies were aimed at establishing the maximum tolerated dose (MTD) and the dose range for use in efficacy studies (efficacy studies were based on a single i.v. injection). […] The studies were based on administration of a single dose and relied on 3 mice/group and a dose escalation strategy based on three dose levels for the derivative and Taxotere and five dose levels for the LN formulations (DSPC/Chol 55:45 mol % at a prodrug/lipid weight ratio of 0.2 mg/mg). All formulations were injected i.v. via the lateral tail vein in a volume of 200 μl/20 g mouse.
# Mice were monitored daily for signs of toxicity over a period of 14 days following drug administration. Tolerability was assessed by changes in body weight as well as behavioral parameters. […] Body weights of individual mice were measured every second day over the course of the study. If weight loss was not a good predictor of tolerability, the dose where no animals needed to be terminated due to toxicity was used.
# [7] = mouse, in vivo, iv, 20 mg/kg
# Text: The pharmacokinetics (PK) of LN-encapsulated docetaxel derivatives were compared to the PK of Taxotere™, the commercial docetaxel formulation, and derivatives formulated in the same manner as Taxotere™. Taxotere™ and similarly formulated derivatives were formulated as described in the prescribing information for Taxotere™ (Sanofi-Aventis, U.S.) using ethanol/polysorbate 80/physiological saline solution to dissolve the drug. The docetaxel derivative was encapsulated in DSPC/chol, DPPC/Chol and DMPC/Chol LN (55:45 mol %) at a drug-to-lipid ratio of 0.2 wt/wt using the ammonium sulfate loading technique. The lipid components contained trace amounts (0.15 μCi/mg lipid) of the lipid marker [^3H]CHE, allowing monitoring of the elimination of both the prodrug and the LN carrier from circulation.
# The PK and in vivo release studies were based on 4 time points (1, 4, 8 and 16 hrs) and 4 mice per time point. […] The methanolic solutions were centrifuged for 30 min at 15,000×g at 4° C. to pellet the proteins and the supernatant was analyzed for docetaxel and drug derivatives by UHPLC. For LN formulations, 25-50 μl of plasma was added to scintillation fluid (PicoFluor 40, Perkin Elmer) and analyzed for lipid levels ([^3H]-CHE radioactivity) by scintillation counting.
# [8] = Chemical (hydrolytic) stability in buffered aqueous solutions; type: physicochemical; conditions: 24 hour incubation in pH 7.4 buffer, 37° C.
# [9] = physchem
# [10] = test system: A431 tumors; assay: In vivo kinetics and anticancer activity of vincristine formulations; parameters: species or system SCID mice; conditions: 2 mg/kg i.v.
# Method: FIG. 9. In vivo kinetics and anticancer activity of free vincristine (VCR) (2 mg/kg) and vincristine (2 mg/kg) encapsulated in 100 nm egg sphingomyelin/cholesterol LN injected i.v. in SCID mice bearing A431 tumors. (8A) Concentration profile of free VCR (□) and LN formulated VCR (●) in blood plasma over time. […] (8B) Release of free VCR (●) from LN formulations (% retention) over time. […] (8C) Tumor concentration ([…]) of VCR over time after administration of free VCR (□) and LN formulated VCR (●). […] (8D) Anticancer activity of free VCR (1) and LN formulated VCR (●) relative to saline control (▪). […] Nano-liposomal formulations increase the amount of drug reaching sites of tumor growth and prolongs the duration of exposure to therapeutically active levels of drug, resulting in increased antitumor activity.
smiles,measurement,setting,value
"CC(=O)O[C@@]12CO[C@@H]1C[C@H](O)[C@@]1(C)C(=O)[C@H](O)C3=C(C)[C@@H](OC(=O)[C@H](O)[C@@H](NC(=O)OC(C)(C)C)c4ccccc4)C[C@@](O)([C@@H](OC(=O)c4ccccc4)[C@H]21)C3(C)C [Docetaxel, reference compound]",IC50,[1],< 0.1 nM
same,IC50,[2],0.1 nM
same,IC50,[3],1 nM
"CC(=O)O[C@@]12CO[C@@H]1C[C@H](O)[C@@]1(C)C(=O)[C@H](O)C3=C(C)[C@@H](OC(=O)[C@H](OC(=O)CCCN4CCN(C)CC4)[C@@H](NC(=O)OC(C)(C)C)c4ccccc4)C[C@@](O)([C@@H](OC(=O)c4ccccc4)C12)C3(C)C (stereo partly shown) [TD1, 2′-O-(N-methyl-piperazinylbutanoic acid ester) derivative of docetaxel]","Prodrug levels (% remaining), pH 4","[4]; 24 hour incubation in pH 4 buffer, 37° C.",94%
same,half-life at 50 g/ml,"[4]; citrate/HEPES (10 mM/10 mM) buffered aqueous solution, pH 4, read-out: hydrolysis half-life (converted)",~49 days
same,"Prodrug levels (% remaining), Plasma",[5],12%
same,IC50,[1],< 0.1 nM
same,IC50,[2],0.1 nM
same,IC50,[3],0.5 nM
same,MTD at 14 days,"[6]; docetaxel equivalents, read-out: MTD",16 mg/kg
same,MTD at 14 days,"[6]; mg/kg prodrug, read-out: MTD expressed as prodrug",20 mg/kg
same,Clin. Observations,"[6]; docetaxel equivalent dose 20 mg/kg, 20 mg/kg",acute toxicity (lethality)
same,Clin. Observations,"[6]; docetaxel equivalent dose 20 mg/kg, listed as Derivative, 20 mg/kg",Acute toxicity
same,DRD (drug-related death),[6]; dose 16 mg/kg,0/3
same,DRD (drug-related death),[6]; dose 20 mg/kg,1/1
same,Clin. Observations,[6]; dose 24 mg/kg,Acute toxicity
same,DRD (drug-related death),[6]; dose 24 mg/kg,3/3
same,time by which plasma concentrations were below detectable levels,[7]; Swiss Webster,≤ 2 h
same,plasma circulation half-lives,[7],minutes
same,"Prodrug levels (% remaining), pH 7.4",[8],23%
same,pKa,[9],7.7
"CC[C@]1(O)C[C@H]2CN(CCc3c([nH]c4ccccc34)[C@@](C(=O)OC)(c3cc4c(cc3OC)N(C=O)[C@H]3[C@@](O)(C(=O)OC)[C@H](OC(C)=O)[C@]5(CC)C=CCN6CC[C@]43[C@@H]65)C2)C1 [free VCR, vincristine]",concentration profile in blood plasma over time,[10],rapidly removed from circulation
